# Measurements as given in patent US7947666B2, “2-methylene-(20S,25S)-19,26-dinor-vitamin D analogs” (Wisconsin Alumni Research Foundation, priority 2007, dated 2011).
# pEC50: −log10 of the molar value. Where two headings read alike, the source gives them in different places.
# How the values were obtained:
# HL-60 cells = assay: HL-60 differentiation (nitro blue tetrazolium reduction); type: cell-based, human; conditions: 4 days, NBT reduction, FIG. 2, read-out: EC50, HL-60 cell differentiation
# Protocol: The study drugs were dissolved in ethanol and the concentrations determined using UV spectrophotometry. Serial dilutions were prepared so that a range of drug concentrations could be tested without changing the final concentration of ethanol (≦0.2%) present in the cell cultures.
# Human promyelocytic leukemia (HL60) cells were grown in RPMI-1640 medium containing 10% fetal bovine serum. The cells were incubated at 37° C. in the presence of 5% CO2.
# HL60 cells were plated at 1.2×10^5 cells/ml. Eighteen hours after plating, cells in duplicate were treated with drug. Four days later, the cells were harvested and a nitro blue tetrazolium reduction assay was performed (Collins et al., 1979; J. Exp. Med. 149:969-974). The percentage of differentiated cells was determined by counting a total of 200 cells and recording the number that contained intracellular black-blue formazan deposits. Verification of differentiation to monocytic cells was determined by measuring phagocytic activity (data not shown).
# vitamin D-deficient rats [1] = assay: Bone calcium mobilization (serum calcium); type: in vivo, rat; conditions: for bone calcium mobilization (serum calcium levels): all dosages / overall, FIGS. 4A and 4B; for bone calcium mobilization (serum calcium): rats on low calcium diet (0.02%)
# Protocol: (§1) Male, weanling Sprague-Dawley rats were placed on Diet 11 (0.47% Ca) diet +AEK oil for one week followed by Diet 11 (0.02% Ca) +AEK oil for 3 weeks. The rats were then switched to a diet containing 0.47% Ca for one week followed by two weeks on a diet containing 0.02% Ca. Dose administration began during the last week on 0.02% calcium diet. Four consecutive ip doses were given approximately 24 hours apart. Twenty-four hours after the last dose, blood was collected from the severed neck and the concentration of serum calcium determined as a measure of bone calcium mobilization. The first 10 cm of the intestine was also collected for intestinal calcium transport analysis using the everted gut sac method.
# Calcium mobilization from bone and intestinal calcium absorption in vitamin D-deficient animals.
# vitamin D-deficient rats [2] = assay: Intestinal calcium transport, everted gut sac method; type: in vivo, rat; conditions: for intestinal calcium transport: everted gut sac
# Protocol: as §1
# Intestinal calcium transport was evaluated in the same groups of animals using the everted gut sac method (FIGS. 5A and 5B).
# [3] = test system: 24-hydroxylase (24Ohase) gene promoter; assay: In vitro transcription assay, luciferase reporter in ROS 17/2.8 (bone) cells; type: cell-based; conditions: ROS 17/2.8 cells, 24-hydroxylase promoter luciferase, 16 h; FIG. 3; read-out: EC50, transcriptional activity in bone cells
# Protocol: Transcription activity was measured in ROS 17/2.8 (bone) cells that were stably transfected with a 24-hydroxylase (24Ohase) gene promoter upstream of a luciferase reporter gene (Arbour et al., 1998). Cells were given a range of doses. Sixteen hours after dosing the cells were harvested and luciferase activities were measured using a luminometer.
# RLU=relative luciferase units.
# [4] = 260 pmol/day ip for 4 consecutive days
# [5] = 7020 pmol/day ip for 4 consecutive days
Compound,pEC50 (HL-60 cells),bone calcium mobilization (serum calcium levels) (vitamin D-deficient rats [1]),intestinal calcium transport (vitamin D-deficient rats [2]; [4]),"pEC50 (HL-60 cells; Homo sapiens, 96 h)",pEC50 [3],bone calcium mobilization (serum calcium) (vitamin D-deficient rats [1]; [4]),bone calcium mobilization (serum calcium) (vitamin D-deficient rats [1]; [5]),"times less potent than the native hormone in mobilizing bone calcium store (vitamin D-deficient rats [1]; rats, compared to 1,25(OH)2D3, same increase in serum calcium)",intestinal calcium transport (vitamin D-deficient rats [2]; [5]),"intestinal calcium transport activity compared to 1,25(OH)2D3 (vitamin D-deficient rats [2]; overall, FIGS. 5A and 5B, two batches of rats)"
"C=C1/C(=C\C=C2/CCC[C@]3(C)[C@@H]([C@H](C)CCCC(C)(C)O)CC[C@@H]23)C[C@@H](O)C[C@@H]1O [1,25(OH)2D3, 1α,25-dihydroxyvitamin D3, reference compound]",8.70,increased serum calcium levels at all dosages,promotes a significant increase,,,,,,,
"C=C1[C@H](O)CC(=C/C=C2\CCC[C@@]3(C)C2CC[C@@H]3[C@@H](C)CCC[C@H](C)O)C[C@H]1O (stereo partly drawn) [A4, 2-methylene-(20S,25S)-19,26-dinor-1α,25-dihydroxyvitamin D3]",,very little bone calcium mobilization activity,promotes intestinal calcium transport only slightly,9.30,10.52,did not result in mobilization of bone calcium,without any substantial effect,approximately 100 times,significant intestinal calcium transport activity,very little activity
